Data published in BindingDB's records for doi:10.1016/j.bmcl.2009.10.011 (AMRI, 2009).

Target: Cyclin-A1/Cyclin-A2/Cyclin-dependent kinase 2 (Homo sapiens, UniProt P24941)
Test: Inhibition of recombinant Cdk2/cyclinA

| IC50 [nM] | SMILES |
| --- | --- |
| 0.1 | Cc1csc(-c2ccc(CNc3nc(N[C@H]4CC[C@H](N)CC4)nc4c3ncn4C(C)C)s2)n1 |
| 0.9 | CC(C)n1cnc2c(NCc3ccc(-c4cccs4)nc3)nc(N[C@H]3CC[C@H](N)CC3)nc21 |
